Experimental data: ChEMBL document CHEMBL1201862, “PubChem BioAssay data set” (2004)
Where “and” joins values, the source holds several entries; their conditions need not be identical. Equal values may be shown once.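 Cells were grown in 96-well plates and exposed to each compound for 48 hours at five concentrations; endpoints were interpolated linearly between bracketing concentrations, or set to the highest concentration if not reached. Here, GI50 denotes the concentration required for 50% inhibition of growth.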 Calls of active or inactive are those of the source. Rule as the data show it: active = GI50 up to about 1.1 µM and inactive = higher.

Columns and labels:
Experiment in all cases: NCI anticancer screen, dose series, 48 h
A498 = tested on: A498
CCRF-CEM = tested on: CCRF-CEM
DLD-1 = tested on: DLD-1
DMS-114 = tested on: DMS-114
DMS-273 = tested on: DMS-273
EKVX = tested on: EKVX
HCC 2998 = tested on: HCC 2998
HCT-116 = tested on: HCT-116
HCT-15 = tested on: HCT-15
HL-60 = tested on: HL-60
HOP-62 = tested on: HOP-62
HT-29 = tested on: HT-29
IGROV-1 = tested on: IGROV-1
K562 = tested on: K562
KM-20L2 = tested on: KM-20L2
KM12 = tested on: KM12
LOX IMVI = tested on: LOX IMVI
M19-MEL = tested on: M19-MEL
MOLT-4 = tested on: MOLT-4
NCI-H226 = tested on: NCI-H226
NCI-H23 = tested on: NCI-H23
NCI-H522 = tested on: NCI-H522
OVCAR-4 = tested on: OVCAR-4
OVCAR-5 = tested on: OVCAR-5
RPMI-8226 = tested on: RPMI-8226
RXF 631 = tested on: RXF 631
SF-295 = tested on: SF-295
SF-539 = tested on: SF-539
SK-MEL-2 = tested on: SK-MEL-2
SK-MEL-5 = tested on: SK-MEL-5
SK-OV-3 = tested on: SK-OV-3
SNB-19 = tested on: SNB-19
SNB-75 = tested on: SNB-75
SNB-78 = tested on: SNB-78
SW-620 = tested on: SW-620
TK-10 = tested on: TK-10
UACC-62 = tested on: UACC-62
XF498 = tested on: XF498

With `Cc1cc(Cl)cc2c1NC(=O)C2(O)C(C(=O)c1ccccc1)c1ccccc1` (stereo not drawn) the GI50 (A498) was 27.7 µM (inactive), the GI50 (CCRF-CEM) was 26.7 µM (inactive) and the GI50 (DLD-1) was 53.8 µM (inactive) and 42.3 µM (inactive). For the same compound, the GI50 (DMS-114) was 22.9 µM (inactive) and 25.6 µM (inactive), the GI50 (DMS-273) was 55.8 µM (inactive) and the GI50 (EKVX) was 49.8 µM (inactive) and 67.8 µM (inactive). For the same compound, the GI50 (HCC 2998) was 23.9 µM (inactive) and 29.9 µM (inactive), the GI50 (HCT-116) was 23.4 µM (inactive) and the GI50 (HCT-15) was 71.3 µM and 46.7 µM. The GI50 (HL-60) was 20.1 µM (inactive), the GI50 (HOP-62) was 82 µM (inactive) and 47.3 µM (inactive) and the GI50 (HT-29) was 35.2 µM (inactive) and 39.8 µM (inactive). The GI50 (IGROV-1) was 26.2 µM (inactive), the GI50 (K562) was 33.5 µM (inactive) and the GI50 (KM-20L2) was 88.9 µM (inactive). For the same compound, the GI50 (KM12) was 47.6 µM (inactive) and 60.4 µM (inactive), the GI50 (LOX IMVI) was 19.3 µM (inactive) and 33 µM (inactive) and the GI50 (M19-MEL) was 3.4 µM (inactive). For the same compound, the GI50 (MOLT-4) was 16 µM (inactive), the GI50 (NCI-H226) was 36.4 µM (inactive) and 27.3 µM (inactive) and the GI50 (NCI-H23) was 52.5 µM (inactive) and 38.6 µM (inactive). For the same compound, the GI50 (NCI-H522) was 36.5 µM (inactive), the GI50 (OVCAR-4) was 20.4 µM (inactive) and 35.5 µM (inactive) and the GI50 (OVCAR-5) was > 100 µM (inactive). The GI50 (RPMI-8226) was 17.4 µM (inactive) and 22.9 µM (inactive), the GI50 (RXF 631) was 37.8 µM (inactive) and 70.1 µM (inactive) and the GI50 (SF-295) was 45.7 µM (inactive) and 67.8 µM (inactive). The GI50 (SF-539) was 21 µM (inactive), the GI50 (SK-MEL-2) was 44.8 µM (inactive) and 32.3 µM (inactive) and the GI50 (SK-MEL-5) was 21.2 µM (inactive). The GI50 (SK-OV-3) was 56.6 µM (inactive), the GI50 (SNB-19) was 77.6 µM (inactive) and the GI50 (SNB-75) was 24.7 µM (inactive) and 21.7 µM (inactive). For the same compound, the GI50 (SNB-78) was 41.8 µM (inactive) and 56.6 µM (inactive), the GI50 (SW-620) was 44.7 µM (inactive) and 76 µM (inactive) and the GI50 (TK-10) was > 100 µM (inactive) and 84.7 µM (inactive). For the same compound, the GI50 (UACC-62) was 17.3 µM (inactive) and the GI50 (XF498) was 36.4 µM (inactive) and 28.7 µM (inactive).
